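Grown in 96-well plates, cells were treated for 48 hours with each compound at five concentrations. Insufficient inhibition: endpoint recorded as highest concentration tested. GI50: concentration for 50% inhibition of growth.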 The source made the active and inactive calls. Cut-off read from the data, not from the text of the source: active = GI50 up to about 1.1 µM and inactive = higher.

Among the test systems are HCT-15; SK-OV-3; RPMI-8226; Malme-3M; OVCAR-4; K562; SW-620; SK-MEL-2; HCT-116; SNB-78; M19-MEL; COLO 205; NCI-H522; DMS-273; LXFL 529; CAKI-1.
Holding throughout (test): growth of human tumour cells (NCI), 48 h

On to `O=C(CC(=O)C1CCOC1=O)C(=O)Nc1ccc(Cl)cc1` (centres undefined), for which the GI50 in the assay with HCT-15 was greater than 100 µM; with SK-OV-3, > 100 µM (inactive); in the assay on RPMI-8226, > 100 µM (inactive); with Malme-3M, > 100 µM (inactive); in the assay with OVCAR-4, > 100 µM (inactive); in the assay on K562, > 100 µM (inactive). Besides, the GI50 with SW-620, with SK-MEL-2, with HCT-116, with SNB-78, in the assay with M19-MEL and in the assay with COLO 205 was > 100 µM (inactive) throughout. The GI50 in the assay with NCI-H522, in the assay on DMS-273, with LXFL 529 and in the assay on CAKI-1 was > 100 µM (inactive) throughout.
For the molecule `O=C1/C(=C/c2ccccc2)CN(C(=O)OCC(Cl)(Cl)Cl)C/C1=C\c1ccccc1`, the GI50 in the assay on HCT-15 is 1.95 µM; in the assay on SK-OV-3, 7.48 µM (inactive); with RPMI-8226, 0.0394 µM (active); in the assay on Malme-3M, 3.2 µM (inactive); in the assay with K562 it was 1.32 µM (inactive); in the assay with SW-620, 1.09 µM (active). Also, the GI50 with SK-MEL-2 is 4.89 µM (inactive); in the assay on HCT-116 it was 1.33 µM (inactive); in the assay with SNB-78 it was 1.34 µM (inactive); in the assay on M19-MEL, 1.39 µM (inactive); with COLO 205 it was 3.73 µM (inactive); in the assay with NCI-H522 it was 3.47 µM (inactive). Besides, the GI50 in the assay on DMS-273 is 1.5 µM (inactive); with LXFL 529, 1.78 µM (inactive).
On to `CN(/C(=N\O)c1ccccc1)c1ccccc1`, for which the GI50 is 39.1 µM (inactive) with Malme-3M; 33.7 µM (inactive) in the assay with OVCAR-4; 32.2 µM (inactive) in the assay on SW-620; 27.8 µM (inactive) in the assay with SK-MEL-2; 46.7 µM (inactive) with HCT-116; 28.4 µM (inactive) in the assay on SNB-78. Also, the GI50 is 78.2 µM (inactive) with M19-MEL; 95.9 µM (inactive) in the assay on COLO 205; 18 µM (inactive) in the assay with NCI-H522; 24.3 µM (inactive) in the assay on DMS-273; 34.8 µM (inactive) with LXFL 529; 37.2 µM (inactive) in the assay on CAKI-1.
As for `Cc1[nH]c2ccccc2c1C1Cc2ccccc2N1C(=O)/C=C/C=C/c1ccccc1` (centres undefined), the GI50 is greater than 100 µM with HCT-15; > 100 µM (inactive) in the assay with SK-OV-3; > 100 µM (inactive) with RPMI-8226; > 100 µM (inactive) in the assay on Malme-3M; 24.3 µM (inactive) with OVCAR-4; > 100 µM (inactive) with K562. Moreover, the GI50 in the assay with SW-620, in the assay with SK-MEL-2, in the assay on HCT-116, in the assay on SNB-78, with M19-MEL and in the assay on COLO 205 was > 100 µM (inactive) in each case. Moreover, the GI50 with NCI-H522, in the assay with DMS-273, with LXFL 529 and in the assay with CAKI-1 was > 100 µM (inactive) in each case.
`O=C1OC(O)C(Oc2ccc(Cl)cc2)=C1Cl` (centres undefined): the GI50 with HCT-15 is greater than 100 µM; with SK-OV-3 it was > 100 µM (inactive); in the assay with RPMI-8226, > 100 µM (inactive); in the assay on Malme-3M, > 100 µM (inactive); with OVCAR-4, > 100 µM (inactive); in the assay with K562 it was > 100 µM (inactive). The GI50 in the assay on SW-620, with SK-MEL-2, in the assay with HCT-116, in the assay on SNB-78, in the assay with M19-MEL and with COLO 205 was > 100 µM (inactive) each time. Also, the GI50 in the assay with NCI-H522, in the assay with DMS-273, with LXFL 529 and in the assay on CAKI-1 was > 100 µM (inactive) throughout.
